Source: ChEMBL document CHEMBL1201862, “PubChem BioAssay data set” (2004)
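Exposure lasted 48 hours, with cells grown in 96-well plates and compounds tested at five concentrations. Here, GI50 denotes the concentration required for 50% inhibition of growth.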 The source made the active and inactive calls. Rule as the data show it: active = GI50 up to about 1.1 µM and inactive = higher.

Columns and labels:
Experiment in all cases: NCI-60 cell line screen, 48 h
SF-539 = tested on: SF-539
NCI-H23 = tested on: NCI-H23
BT-549 = tested on: BT-549
HOP-92 = tested on: HOP-92
SW-620 = tested on: SW-620
OVCAR-4 = tested on: OVCAR-4
SK-OV-3 = tested on: SK-OV-3
SK-MEL-28 = tested on: SK-MEL-28
CAKI-1 = tested on: CAKI-1
MOLT-4 = tested on: MOLT-4
MDA-N = tested on: MDA-N
EKVX = tested on: EKVX
TK-10 = tested on: TK-10
COLO 205 = tested on: COLO 205
HCT-116 = tested on: HCT-116
SN12C = tested on: SN12C
K562 = tested on: K562
ACHN = tested on: ACHN
LOX IMVI = tested on: LOX IMVI
UACC-62 = tested on: UACC-62

`c1cc(CCN2CCCCC2)ccn1` was tested, and the GI50 (SF-539) was > 100 µM (inactive), the GI50 (NCI-H23) was > 100 µM (inactive) and the GI50 (BT-549) was > 100 µM (inactive). The GI50 (HOP-92) was > 100 µM (inactive), the GI50 (SW-620) was > 100 µM (inactive) and the GI50 (OVCAR-4) was > 100 µM (inactive). The GI50 (SK-OV-3) was > 100 µM (inactive), the GI50 (SK-MEL-28) was > 100 µM (inactive) and the GI50 (CAKI-1) was > 100 µM (inactive). The GI50 (MOLT-4) was 35.2 µM (inactive), the GI50 (MDA-N) was > 100 µM (inactive) and the GI50 (EKVX) was > 100 µM (inactive). The GI50 (TK-10) was > 100 µM (inactive), the GI50 (COLO 205) was > 100 µM (inactive) and the GI50 (HCT-116) was > 100 µM (inactive). For the same compound, the GI50 (SN12C) was > 100 µM (inactive), the GI50 (K562) was > 100 µM (inactive) and the GI50 (ACHN) was > 100 µM (inactive). For the same compound, the GI50 (LOX IMVI) was > 100 µM (inactive) and the GI50 (UACC-62) was > 100 µM (inactive).

In the case of `CN(C)CCn1c(=O)c2ccc(NCCCN(C)CCCNc3ccc4c(=O)n(CCN(C)C)c(=O)n5c6ccc([N+](=O)[O-])cc6c(=O)c3c45)c3c(=O)c4cc([N+](=O)[O-])ccc4n(c1=O)c23`, the GI50 (SF-539) is reported as < 0.01 µM (active), the GI50 (NCI-H23) is reported as < 0.01 µM (active) and the GI50 (BT-549) is reported as 0.0376 µM (active). The GI50 (HOP-92) was < 0.0354 µM (active), the GI50 (SW-620) was < 0.0112 µM (active) and the GI50 (OVCAR-4) was < 0.01 µM (active). For the same compound, the GI50 (SK-OV-3) was < 0.0258 µM (active), the GI50 (SK-MEL-28) was 0.0664 µM (active) and the GI50 (CAKI-1) was < 0.033 µM (active). For the same compound, the GI50 (MOLT-4) was < 0.01 µM (active), the GI50 (MDA-N) was 0.0248 µM (active) and the GI50 (EKVX) was 0.0411 µM (active). The GI50 (TK-10) was < 0.0143 µM (active), the GI50 (COLO 205) was < 0.01 µM (active) and the GI50 (HCT-116) was < 0.01 µM (active). For the same compound, the GI50 (SN12C) was < 0.01 µM (active), the GI50 (K562) was < 0.01 µM (active) and the GI50 (ACHN) was < 0.01 µM (active). For the same compound, the GI50 (LOX IMVI) was < 0.01 µM (active) and the GI50 (UACC-62) was < 0.0246 µM (active).

With `NS(=O)(=O)c1ccc(NNc2c3ccccc3nc3ccccc23)cc1` the GI50 (SF-539) was 12.2 µM (inactive), the GI50 (NCI-H23) was 13.6 µM (inactive) and the GI50 (BT-549) was 10.3 µM (inactive). The GI50 (HOP-92) was 14.1 µM (inactive), the GI50 (SW-620) was 10.9 µM (inactive) and the GI50 (OVCAR-4) was 10.5 µM (inactive). For the same compound, the GI50 (SK-OV-3) was 14.8 µM (inactive), the GI50 (SK-MEL-28) was 12 µM (inactive) and the GI50 (CAKI-1) was 13 µM (inactive). For the same compound, the GI50 (MOLT-4) was 6.04 µM (inactive), the GI50 (MDA-N) was 12.9 µM (inactive) and the GI50 (EKVX) was 12.5 µM (inactive). The GI50 (TK-10) was 18.8 µM (inactive), the GI50 (COLO 205) was 7.29 µM (inactive) and the GI50 (HCT-116) was 10.8 µM (inactive). For the same compound, the GI50 (SN12C) was 14 µM (inactive), the GI50 (K562) was 7.89 µM (inactive) and the GI50 (ACHN) was 11.4 µM (inactive). For the same compound, the GI50 (LOX IMVI) was 7.21 µM (inactive) and the GI50 (UACC-62) was 12.3 µM (inactive).

For `COc1ccc(OCC(=N/NC(=O)c2ccncc2)/N=C/c2ccncc2)cc1`, the GI50 (SF-539) was > 100 µM (inactive), the GI50 (NCI-H23) was > 100 µM (inactive) and the GI50 (BT-549) was > 100 µM (inactive). For the same compound, the GI50 (HOP-92) was 29.2 µM (inactive), the GI50 (SW-620) was 53.5 µM (inactive) and the GI50 (OVCAR-4) was > 100 µM (inactive). The GI50 (SK-OV-3) was 94.4 µM (inactive), the GI50 (SK-MEL-28) was 75.5 µM (inactive) and the GI50 (CAKI-1) was > 100 µM (inactive). For the same compound, the GI50 (MOLT-4) was 90.2 µM (inactive), the GI50 (MDA-N) was 17.6 µM (inactive) and the GI50 (EKVX) was > 100 µM (inactive). The GI50 (TK-10) was > 100 µM (inactive), the GI50 (COLO 205) was 74 µM (inactive) and the GI50 (HCT-116) was 83.9 µM (inactive). The GI50 (SN12C) was > 100 µM (inactive), the GI50 (K562) was 57.9 µM (inactive) and the GI50 (ACHN) was > 100 µM (inactive). The GI50 (LOX IMVI) was > 100 µM (inactive) and the GI50 (UACC-62) was 53.6 µM (inactive).

In the case of `C=C1CC2(CC(c3ccccc3C)OC(c3ccccc3C)C2)OC1=O` (stereo not given), the GI50 (SF-539) is reported as 1.62 µM (inactive), the GI50 (NCI-H23) is reported as 1.96 µM (inactive) and the GI50 (BT-549) is reported as 1.92 µM (inactive). For the same compound, the GI50 (HOP-92) was 1.76 µM (inactive), the GI50 (SW-620) was 1.73 µM (inactive) and the GI50 (OVCAR-4) was 2.27 µM (inactive). For the same compound, the GI50 (SK-OV-3) was 11.6 µM (inactive), the GI50 (SK-MEL-28) was 1.82 µM (inactive) and the GI50 (CAKI-1) was 1.87 µM (inactive). For the same compound, the GI50 (MOLT-4) was 2.77 µM (inactive), the GI50 (MDA-N) was 1.75 µM (inactive) and the GI50 (EKVX) was 16.1 µM (inactive). For the same compound, the GI50 (TK-10) was 1.74 µM (inactive), the GI50 (COLO 205) was 1.9 µM (inactive) and the GI50 (HCT-116) was 1.82 µM (inactive). For the same compound, the GI50 (SN12C) was 1.97 µM (inactive), the GI50 (K562) was 2.15 µM (inactive) and the GI50 (ACHN) was 2.36 µM (inactive). The GI50 (LOX IMVI) was 1.58 µM (inactive) and the GI50 (UACC-62) was 1.54 µM (inactive).
